# According to patent US9180183B2, “Phospholipid drug analogs” (Telormedix SA, priority 2010, dated 2015):
# Entries after “also recorded” stand apart in the source; their conditions may differ.
# Assays:
# CYP2E1 = CYP2E1 (Homo sapiens (Human), UniProt P05181); test: Fluorescent High Throughput P450 assay CYP2E1; format: in vitro ADME
# Method: (§2) Inhibition of the P450 isoforms was measured in specific assays using specific substrates that become fluorescent upon CYP metabolism. Compounds, dissolved in ACN (acetonitrile) (CYP2E1, CYP2C8, CYP2B6, CYP3A5) or DMSO (all remaining isoforms), were tested in duplicate (n=2) in concentration-response curves (eight concentrations) in a 96-well plate containing incubation/NADPH regenerating buffer. Specific isoenzymes and substrates were added and incubated at 37° C. Reactions were terminated at different times, depending on the assays, and plates read on a Fluoroskan Ascent at the appropriate emission/excitation wavelengths. Concentration-response curves performed in duplicate for known inhibitors for each isoenzyme were tested in every assay as positive control.
# human whole blood = test: Cytokine secretion in human whole blood assay (ELISA); format: cell-based; settings: for IL-12p40 levels: all donors
# Method: Before drawing the blood, the compounds were added to 96 well round bottom plates in a 10× diluted sample at 20 ul. The compounds were diluted in RPMI media without serum but with antibiotics. Antibiotics were added at a 10× concentration. After drawing the blood, the whole blood sample was gently mixed to obtain a homogeneous sample, and 180 ul was added to each well.
# All compounds were setup in concentrations at 0-0.01-0.03-0.1-0.5-2.0-10.0 micromolar as the final concentration. Vehicle control was DMSO control, where we used the highest concentration used for the compounds. After addition of blood, all plates were gently agitated at 37° C. and 5% CO2 until harvest.
# Concentrations of cytokines were determined by ELISA from R&D Systems. The results were analyzed in Graph Pad Prism in order to prepare dose-response curves, and for determination of EC50 values. FACS analysis was made by using Becton-Dickinson FACSDiva software and subsequently illustrated in Graph Pad Prism.
# [1] = tested on: 73 primary molecular targets (human recombinant receptor types and subtypes or membrane fraction from rodent tissue homogenates); test: Radioligand binding assay among 73 primary molecular targets; settings: SC12 at 30 microM
# [2] = tested on: HLA-DR+/CD11c+/CD123- mDCs; test: FACS analysis of myeloid DC activation in whole blood; format: cell-based, human; settings: 24 hours; 0.1 and 0.5 uM; three donors
# Method: The FACS analysis for donor 1 and donor 2 was made on another day than donor 3. The compound concentrations were as follows:
# The FACS analysis was used to identify whether the test compounds could induce activation of B cells, and two different subsets of dendritic cells, namely the myeloid CD11c+/CD123− DCs and the plasmacytoid CD11c−/CD123+ DCs. The following markers were studied to identify the activation status of the different subsets:
# The FACS staining was performed according to the manufacturer's instructions. Lysis of red blood cells was performed before FACS staining in order to minimize auto-florescence. To include as many B cells and DCs in the study as possible the FACS analyses were performed on 500,000 cells in total for each staining. A P1 gate was set only to include relevant cells on FSC vs. SSC (see FIGS. 12-15). The results of the individual analysis were present as Mean Fluorescence Intensity
# The analysis of myeloid DCs was based on HLA-DR+/CD11c+/CD123−cells, thus all analyzed cells was included in the HLA-DR+ (P3) gate and CD11c+/CD123− (Q4) gate (see gates in FIGS. 13-15).
# [3] = Single dose intravenous toxicity study in rats; format: in vivo, Sprague Dawley rat
# Method: An additional group, similarly composed, received the vehicle alone and acted as a control. […] Clinical signs were limited to piloerection and reduced activity, observed on the day of dosing.
# In the main phase, 5 male and 5 female animals were dosed at 90 mg/kg and observed for a period of 14 days. A second group, similarly constituted, received the vehicle alone and acted as control. […] In addition, one male and one female dosed at 90 mg/kg were found dead on Day 2 of the study. Twitches, ataxia, piloerection, reduced activity and hunched posture were the major signs observed in animals before death. […] Piloerection was observed up to Day 3 of the study. A second group, similarly composed, was dosed at 80 mg/kg.
# CYP2C9 = CYP2C9 (Homo sapiens (Human), UniProt P11712); test: Fluorescent High Throughput P450 assay CYP2C9; format: in vitro ADME
# Method: as §2
# [4] = tested on: Escherichia coli WP2 uvrA; test: Bacterial mutation assay, Escherichia coli; format: cell-based; settings: absence or presence of S9 metabolism
# Method: (§1) The five tester strains TA1535, TA1537, TA98, TA100 and WP2 uvrA were used. Experiments were performed both in the absence and presence of metabolic activation, using liver S9 fraction from rats pre-treated with phenobarbitone and betanaphthoflavone. SC12 was used as a solution in dimethylsulfoxide (DMSO).
# CYP3A5 = CYP3A5 (Homo sapiens (Human), UniProt P20815); test: Fluorescent High Throughput P450 assay CYP3A5; format: in vitro ADME
# Method: as §2
# [5] = tested on: Salmonella typhimurium TA1535, TA1537, TA98, TA100; test: Bacterial mutation assay, Salmonella typhimurium; format: cell-based; settings: absence or presence of S9 metabolism
# Method: as §1
# HLA-DR+/CD20+ B cells = test: FACS analysis of B cell activation in whole blood; format: cell-based, human; settings: 24 hours; 2 and 10 uM; three donors
# Method: The FACS staining was performed according to the manufacturer's instructions. Lysis of red blood cells was performed before FACS staining in order to minimize auto-florescence. To include as many B cells and DCs in the study as possible the FACS analyses were performed on 500,000 cells in total for each staining. […] The results of the individual analysis were present as Mean Fluorescence Intensity
# The analysis of expression of the activation marker CD40 on B cells was made on double positive HLA-DR (MHC class II) (P4 gate) and CD20 cells (B cell marker) (P8 gate).
# [6] = Heat stability of solid samples at 80° C. (HPLC); format: physicochemical; settings: solid sample
# Method: Solid samples of each compound were maintained at 80° C. and analyzed by HPLC.
# [7] = tested on: AY-27 rat bladder cancer cell-line; settings: in vivo
# [8] = Solubility in organic solvents; format: physicochemical; settings: especially in ACN
# [9] = whole blood, 6 hours incubation
# [10] = toxicity test, 50.0-5000 micrograms/plate
# Sequence of CYP3A5 (P20815 whole entry, looked up): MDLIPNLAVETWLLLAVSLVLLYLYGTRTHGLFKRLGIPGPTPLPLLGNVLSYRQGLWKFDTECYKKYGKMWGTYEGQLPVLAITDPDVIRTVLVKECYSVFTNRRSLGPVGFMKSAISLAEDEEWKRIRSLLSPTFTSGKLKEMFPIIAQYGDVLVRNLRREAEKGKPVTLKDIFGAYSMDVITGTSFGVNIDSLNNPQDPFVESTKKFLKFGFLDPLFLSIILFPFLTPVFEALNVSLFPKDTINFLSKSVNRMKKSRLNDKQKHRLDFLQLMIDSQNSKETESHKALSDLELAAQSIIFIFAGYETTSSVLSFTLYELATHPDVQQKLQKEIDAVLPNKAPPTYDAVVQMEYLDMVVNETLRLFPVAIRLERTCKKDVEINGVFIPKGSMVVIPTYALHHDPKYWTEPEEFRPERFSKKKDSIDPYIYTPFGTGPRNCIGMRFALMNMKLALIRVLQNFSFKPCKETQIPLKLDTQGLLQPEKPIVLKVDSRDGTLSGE
# Sequence of CYP2C9 (P11712 whole entry, looked up): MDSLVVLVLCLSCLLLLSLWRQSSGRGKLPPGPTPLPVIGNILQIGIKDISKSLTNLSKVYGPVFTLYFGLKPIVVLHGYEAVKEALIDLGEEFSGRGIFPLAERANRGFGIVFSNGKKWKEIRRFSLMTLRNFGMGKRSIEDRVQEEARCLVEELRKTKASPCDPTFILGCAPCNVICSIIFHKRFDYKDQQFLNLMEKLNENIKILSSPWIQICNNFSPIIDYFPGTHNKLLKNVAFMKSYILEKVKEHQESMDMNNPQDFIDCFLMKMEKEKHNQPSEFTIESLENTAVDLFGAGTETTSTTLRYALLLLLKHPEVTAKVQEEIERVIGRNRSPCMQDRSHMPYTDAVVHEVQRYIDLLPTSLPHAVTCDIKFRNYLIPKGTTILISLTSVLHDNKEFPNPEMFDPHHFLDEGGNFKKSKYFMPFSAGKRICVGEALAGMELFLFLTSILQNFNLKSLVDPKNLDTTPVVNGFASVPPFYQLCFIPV
# Sequence of CYP2E1 (P05181 whole entry, looked up): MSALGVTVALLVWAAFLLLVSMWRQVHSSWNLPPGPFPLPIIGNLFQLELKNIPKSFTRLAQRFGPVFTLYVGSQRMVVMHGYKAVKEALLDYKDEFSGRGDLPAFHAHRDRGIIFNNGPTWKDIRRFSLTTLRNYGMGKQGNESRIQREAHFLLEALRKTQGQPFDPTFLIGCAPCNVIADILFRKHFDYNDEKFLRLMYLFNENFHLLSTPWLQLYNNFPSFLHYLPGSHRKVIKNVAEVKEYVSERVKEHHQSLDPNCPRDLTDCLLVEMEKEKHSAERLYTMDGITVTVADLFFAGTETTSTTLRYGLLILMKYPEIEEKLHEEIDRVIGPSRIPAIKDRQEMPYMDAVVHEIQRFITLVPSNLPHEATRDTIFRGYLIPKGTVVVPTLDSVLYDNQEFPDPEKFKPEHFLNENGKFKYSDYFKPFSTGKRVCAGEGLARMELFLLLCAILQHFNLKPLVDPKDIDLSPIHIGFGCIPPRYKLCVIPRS
smiles,measurement,setting,value
CCCCCCCCCCCC(=O)OCC(COP(=O)(O)OCCNC(=O)c1ccc(Cn2c(=O)[nH]c3c(N)nc(OCCOC)nc32)cc1)OC(=O)CCCCCCCCCCC (stereo not drawn) [SC12],inhibition of CYP2E1 (in words),CYP2E1,moderate inhibition
same,induction of DC secreted cytokines (in words),human whole blood; supernatant from whole blood cell assays,potent inducers
same,range of IL-6 secretion,"human whole blood; whole blood, three donors",4000 to 8000 pg/mL
same,ranges of IFN-alpha secreted,"human whole blood; whole blood, three donors",1000 to 2000 pg/mL
same,IL-10 production (in words),human whole blood; [9],no IL-10 production was seen
same,IL-12p40 levels,human whole blood; [9],8.000 to 12.000 pg/mL
same,IL-12p40 levels,"human whole blood; whole blood, 24 hours incubation",20.000 to 25.000 pg/mL
same,binding to receptors associated with pain-related syndromes (e.g. adenosine and sodium channel),[1],did not bind
same,"CCR7 expression in mDCs (MFI, in words)",[2],less potent stimulator of CCR7 expression
same,"CD80 expression in mDCs (MFI, in words)",[2],induced a noteworthy CD80 expression in all three donors
same,"CD86 expression in mDCs (MFI, in words)",[2],"induces a weak CD86 expression in donor 2 and 3, but not in donor 1"
same,mortality,"[3]; 76 mg/kg i.v., preliminary phase",No mortality occurred
same,mortality and clinical signs,"[3]; 80 mg/kg i.v., main phase",No mortality occurred and no clinical signs were recorded
same,clinical signs,"[3]; 85 mg/kg i.v., preliminary phase",Piloerection
same,mortality and signs of toxicity,"[3]; 90 mg/kg i.v., main phase",induced mortality or significant signs of toxicity
same,mortality,"[3]; 90 mg/kg i.v., preliminary phase",No mortality occurred
same,mortality,"[3]; 100 mg/kg i.v., preliminary phase",Both animals died at dosing
same,maximum tolerated dose,"[3]; single intravenous administration, rat",80 mg/kg
same,inhibition of CYP2C9 (in words),CYP2C9,weak inhibition
same,toxicity to tester strains,[4]; [10],No toxicity was observed
same,reverse mutation / revertant colonies,[4]; up to 5000 micrograms/plate,did not induce two-fold increases in the number of revertant colonies; also recorded: does not induce reverse mutation
same,inhibition of CYP3A5 (in words),CYP3A5,moderate inhibition
same,toxicity to tester strains,[5]; [10],No toxicity was observed
same,reverse mutation / revertant colonies,[5]; up to 5000 micrograms/plate,did not induce two-fold increases in the number of revertant colonies; also recorded: does not induce reverse mutation
same,"CD40 expression (MFI, in words)",HLA-DR+/CD20+ B cells,induced CD40 expression in donor 1 and donor 2 in all tested concentrations
same,HPLC purity,[6]; After 2 hrs at 80° C.,90% HPLC
same,HPLC purity,[6]; After 22 hrs at 80° C.,88% HPLC
same,HPLC purity,[6]; t = 0,90% HPLC
same,signs of toxicity (in words),[7],No signs of toxicity
same,solubility,[8],low solubility
